Molecular target: Protein cereblon/DNA damage-binding protein 1 (Homo sapiens) (UniProt Q96SW2+Q16531)
Assay: Displacement of AlexaFlour-conjugated ligand from CRBN/DDB1 complex (unknown origin) incubated in 0.05% PA/0.1% BSA at room temperature for 60 mins by fluorescence polarization assay
Assay type: protein assay

Chain of Protein cereblon/DNA damage-binding protein 1 (Homo sapiens) (Q16531 2-1140 partner limits assumed): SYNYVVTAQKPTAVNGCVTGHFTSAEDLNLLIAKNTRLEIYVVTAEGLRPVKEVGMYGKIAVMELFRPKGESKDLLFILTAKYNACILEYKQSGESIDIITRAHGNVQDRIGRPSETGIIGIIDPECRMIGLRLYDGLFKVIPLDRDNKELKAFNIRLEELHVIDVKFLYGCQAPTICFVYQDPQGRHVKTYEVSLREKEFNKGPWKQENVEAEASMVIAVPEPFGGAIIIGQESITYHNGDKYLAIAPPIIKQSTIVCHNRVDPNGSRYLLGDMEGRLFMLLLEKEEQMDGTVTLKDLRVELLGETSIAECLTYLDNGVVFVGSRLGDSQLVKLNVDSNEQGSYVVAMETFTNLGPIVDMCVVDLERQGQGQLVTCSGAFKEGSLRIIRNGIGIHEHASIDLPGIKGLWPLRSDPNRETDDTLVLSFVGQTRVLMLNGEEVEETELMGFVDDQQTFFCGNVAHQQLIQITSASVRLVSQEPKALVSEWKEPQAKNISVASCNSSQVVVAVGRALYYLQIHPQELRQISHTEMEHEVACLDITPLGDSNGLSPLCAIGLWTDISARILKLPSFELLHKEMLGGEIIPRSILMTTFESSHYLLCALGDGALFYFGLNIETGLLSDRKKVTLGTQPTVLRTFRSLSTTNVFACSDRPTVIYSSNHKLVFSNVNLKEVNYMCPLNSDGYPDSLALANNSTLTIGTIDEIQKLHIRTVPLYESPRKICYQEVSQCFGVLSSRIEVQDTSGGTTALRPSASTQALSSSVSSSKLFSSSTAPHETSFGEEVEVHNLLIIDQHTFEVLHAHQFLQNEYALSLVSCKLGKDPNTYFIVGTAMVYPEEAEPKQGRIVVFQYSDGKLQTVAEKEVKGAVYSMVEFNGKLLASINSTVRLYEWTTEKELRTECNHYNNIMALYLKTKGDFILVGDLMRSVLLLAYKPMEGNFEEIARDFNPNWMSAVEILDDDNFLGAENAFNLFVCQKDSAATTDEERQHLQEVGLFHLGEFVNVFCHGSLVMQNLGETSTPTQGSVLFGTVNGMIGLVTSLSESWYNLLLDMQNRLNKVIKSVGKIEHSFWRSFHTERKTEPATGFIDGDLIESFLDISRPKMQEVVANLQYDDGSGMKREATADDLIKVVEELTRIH
Chain of Protein cereblon/DNA damage-binding protein 1 (Homo sapiens) (Q96SW2 whole entry): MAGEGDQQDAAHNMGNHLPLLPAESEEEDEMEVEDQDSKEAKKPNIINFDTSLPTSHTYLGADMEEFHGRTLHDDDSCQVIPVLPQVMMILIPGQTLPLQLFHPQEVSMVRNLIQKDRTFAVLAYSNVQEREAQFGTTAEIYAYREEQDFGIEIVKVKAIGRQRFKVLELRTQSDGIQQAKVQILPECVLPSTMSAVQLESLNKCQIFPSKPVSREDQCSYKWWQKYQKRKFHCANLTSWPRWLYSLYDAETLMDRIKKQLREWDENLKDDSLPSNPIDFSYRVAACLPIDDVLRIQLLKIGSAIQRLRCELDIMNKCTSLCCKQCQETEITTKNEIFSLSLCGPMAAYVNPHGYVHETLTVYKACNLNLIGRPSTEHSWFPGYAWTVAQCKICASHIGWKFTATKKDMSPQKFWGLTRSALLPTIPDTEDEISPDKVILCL

Row | Structure (SMILES) | binding affinity (displacement) [µM]
1 | O=C1CCC(N2CCOc3c(N4CCNCC4)cccc32)C(=O)N1 (stereo not drawn) | < 100
2 | O=C1CCC(N2CCOc3c([C@@H]4CCCNC4)cccc32)C(=O)N1 (stereo partly drawn) | < 100
3 | CN(C(=O)OC(C)(C)C)C1CCN(c2cccc3c2OCCN3[C@H]2CCC(=O)NC2=O)CC1 | < 100
4 | O=C1CCC(N2CCOc3c([C@@H]4CCNC4)cccc32)C(=O)N1 (stereo partly drawn) | < 100
5 | CNC1CCN(c2cccc3c2O[C@@H](C)CN3C2CCC(=O)NC2=O)CC1 (stereo partly drawn) | < 100
6 | CN(C(=O)OC(C)(C)C)C1CCN(c2cccc3c2OCCN3[C@@H]2CCC(=O)NC2=O)CC1 | < 1
7 | O=C1CCC(N2CCOc3c([C@H]4CCNC4)cccc32)C(=O)N1 (stereo partly drawn) | < 100
8 | CNC1CCN(c2cccc3c2O[C@H](C)CN3C2CCC(=O)NC2=O)CC1 (stereo partly drawn) | < 100

— ChEMBL document CHEMBL5614447, “Innovative Drug Discovery: Targeting Cancer, Neurological Disorders, and Obesity” (ACS Med Chem Lett, 2024)
